Results published in ChEMBL document CHEMBL1201862, “PubChem BioAssay data set” (2004).
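Method: 48-hour compound exposure of cells in 96-well plates, five concentrations, linear interpolation of endpoints. GI50 marks 50% less growth.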 Active and inactive are the calls of the source. No stated cut-off is given here; in the data, active = GI50 up to about 1.1 µM and inactive = higher.

How the values were obtained:
Test in all cases: NCI tumour cell line growth inhibition, 48 h
[1] = system: PC-3
[2] = system: RXF 393
[3] = system: NCI-H522
[4] = system: SK-OV-3
[5] = system: SN12C
[6] = system: T47D
[7] = system: BT-549
[8] = system: ACHN
[9] = system: HOP-62
[10] = system: SF-539
[11] = system: CCRF-CEM
[12] = system: MDA-N
[13] = system: OVCAR-5
[14] = system: K562
[15] = system: SF-268
[16] = system: HOP-92
[17] = system: RPMI-8226
[18] = system: CAKI-1
[19] = system: OVCAR-8
[20] = system: A498

Measured: GI50

C[C@]12CCC(=O)C=C1CC[C@@H]1[C@@H]2CC[C@]2(C)C(=O)/C(=C/c3ccncc3)C[C@@H]12
inactive: [1] 12.4 µM | [2] 15.6 µM | [3] 15.3 µM | [4] 20 µM | [5] 16.7 µM | [6] 15.9 µM | [7] 19.2 µM | [8] 14.8 µM | [9] 14.6 µM | [10] 7.4 µM | [11] 14.7 µM | [12] 20.1 µM | [13] 16.9 µM | [14] 11.7 µM | [15] 18.8 µM | [16] 19.1 µM | [17] 8.99 µM | [18] 15.9 µM | [19] 23.3 µM

O=C(N/N=C(COc1ccccc1)\N=C\c1ccncc1)c1ccncc1
inactive: [1] > 100 µM | [20] > 100 µM | [2] > 100 µM | [4] > 100 µM | [5] > 100 µM | [6] > 100 µM | [7] > 100 µM | [8] > 100 µM | [9] > 100 µM | [10] > 100 µM | [11] > 100 µM | [12] > 100 µM | [13] > 100 µM | [14] > 100 µM | [15] > 100 µM | [16] 68.7 µM | [17] 97.5 µM | [18] > 100 µM | [19] > 100 µM

O=C1C(Cl)=C(Cl)C(=O)C2=C1C1c3ccccc3C2c2ccccc21
inactive: [1] > 100 µM | [20] > 100 µM | [2] 30.8 µM | [3] 18.7 µM | [4] 94.4 µM | [5] > 100 µM | [6] 25.3 µM | [7] 14.8 µM | [8] 43.2 µM | [9] 28.9 µM | [10] 31.3 µM | [11] 59 µM | [12] > 100 µM | [13] > 100 µM | [14] 38.6 µM | [15] > 100 µM | [16] 19.5 µM | [17] 25.6 µM | [19] > 100 µM

Cc1cc(O)c2c(c1)C(C1OC(CO)C(O)C(O)C1O)c1cc(O)cc(O)c1C2=O (stereo not drawn)
inactive: [1] > 100 µM | [20] > 100 µM | [4] > 100 µM | [5] > 100 µM | [6] > 100 µM | [7] > 100 µM | [8] > 100 µM | [9] > 100 µM | [11] > 100 µM | [12] > 100 µM | [13] > 100 µM | [14] > 100 µM | [15] > 100 µM | [16] > 100 µM | [17] > 100 µM | [19] > 100 µM

[O-][S+](c1ccccc1)c1ccc(/N=N/O)nc1 (stereo not drawn)
inactive: [1] 78.5 µM | [20] > 100 µM | [3] > 100 µM | [4] > 100 µM | [5] > 100 µM | [6] 82.6 µM | [7] > 100 µM | [8] > 100 µM | [9] > 100 µM | [10] > 100 µM | [11] > 100 µM | [12] > 100 µM | [13] > 100 µM | [14] > 100 µM | [15] > 100 µM | [18] > 100 µM | [19] > 100 µM
active: [2] 0.213 µM

Cc1occc1C(=S)Nc1ccc(Cl)c(C(=O)OCC(C)C)c1
inactive: [1] 16.1 µM | [20] 15.9 µM | [3] 14.1 µM | [4] 20.9 µM | [5] 16.8 µM | [6] 12.8 µM | [7] 17.2 µM | [8] 17.9 µM | [10] 22.3 µM | [11] 26.5 µM | [12] 21.1 µM | [13] 31.8 µM | [14] 12.1 µM | [15] 21.4 µM | [16] 17.4 µM | [17] 19.4 µM | [18] 21.5 µM | [19] 15.8 µM

CN(C)CCSc1cc(-c2ccccc2)c2ccccc2n1
inactive: [1] 12.2 µM | [20] 16 µM | [2] 3.14 µM | [3] 10.7 µM | [4] 3.91 µM | [5] 15 µM | [6] 15.4 µM | [7] 12.3 µM | [8] 13.5 µM | [9] 10.3 µM | [10] 9.18 µM | [11] 10.5 µM | [12] 10.2 µM | [13] 13.4 µM | [14] 2.09 µM | [15] 11.8 µM | [17] 17.3 µM | [18] 16.3 µM | [19] 19.1 µM
